Here are results for three molecules from patent publication US12419950B2, “Saponin-based vaccine adjuvants” (THE UAB RESEARCH FOUNDATION, priority 2019, dated 2025).

The subject of test [1] is antibody responses to chicken egg ovalbumin (OVA). In words: Serum IgG, IgG1 and IgG2a anti-OVA response (ELISA) in mice immunized s.c. with OVA plus adjuvant. In kind it is in vivo, BALB/c mice. Details: IgG2a, serum IgG subclass anti-OVA activity at week 6: unit not given here. The settings on record: for IgG1, serum IgG subclass anti-OVA activity at week 6 / IgG2a, serum IgG subclass anti-OVA activity at week 6: OVA 20 μg + adjuvant 100 μg s.c. days 0, 14, 28; for IgG1, serum IgG subclass anti-OVA activity at week 6 / IgG2a, serum IgG subclass anti-OVA activity at week 6 / IgG2a/IgG1, anti-OVA at week 6: mean ± SEM; for IgG2a/IgG1, anti-OVA at week 6: OVA 20 μg + adjuvant 100 μg s.c.; for IgG2a anti-OVA response in words / serum IgG anti-OVA response compared with OVA alone: study of saponins 3-6; for serum IgG anti-OVA response compared with OVA alone: weeks 2, 4, 6. The method, then: With pure natural saponins 3 and 4, and their derivatives 5 and 6 (FIG. 7) available, their ability to potentiate antibody responses to chicken egg ovalbumin (OVA) was evaluated. The known saponin adjuvant GPI-0100 was used as a positive control. Thus, groups of female BALB/c mice (8-10 weeks of age, six per group) were immunized by the subcutaneous route (s.c.) with OVA (20 μg) alone or with GPI-0100, saponins 3-6 at 100 μg dose on days 0, 14 and 28. Mice were weighed and serum samples were collected prior to each immunization and at 6 weeks after the initial immunization. The levels of serum IgG antibody activity to OVA were determined by enzyme-linked immunosorbent assay (ELISA), as shown in FIGS. 6A-6C, 9A-9C, and Table 1.
Their ability to potentiate antibody responses to chicken egg ovalbumin (OVA) was then evaluated. The known saponin adjuvant GPI-0100 was one of the positive controls. Also used was the recently reported MS derivative VSA-1 (4a) as the other positive control. Its high IgG1/IgG2a production and low toxicity are similar to that of GPI-0100. Thus, groups of female BALB/c mice (8-10 weeks of age, six per group) were immunized by the subcutaneous route (s.c.) with OVA (20 μg) alone or with GPI-0100, or a MS saponin derivative at 100 μg dose on days 0, 14 and 28. Mice were weighed and serum samples were collected prior to each immunization and at 2 weeks following the last immunization. The levels of serum antibody activity to OVA were determined by enzyme-linked immunosorbent assay (ELISA).
BALB/c mice used in this study were from Frederick Cancer Research (Fredrick, MD). To assess the adjuvant activity of the MS saponin-based immune adjuvants, groups of female mice (8-10 weeks of age; 6 mice per group) were immunized by the subcutaneous (s.c.) route with OVA (20 μg) or rHagB (35 μg) alone, or with antigen plus proper adjuvant such as GPI-0100 (100 μg) or a MS adjuvant (100 μg) on days 0, 14 and 28. Prior to each immunization and at two weeks post last immunization, mice were weighed and blood samples were collected from the lateral tail vein by using heparinized capillary pipettes. The serum was obtained after centrifugation and stored at −20° C. until assayed.
The levels of specific serum IgG and IgG subclasses against OVA or rHagB in each group were determined by an enzyme-linked immunosorbent assay (ELISA). Maxisorpmicrotiter plates (NUNC International, Roskilde, DK) were coated with rHagB (1 μg/ml), OVA (0.1 μg/ml), or with optimal amounts of goat anti-mouse IgG, IgG1 or IgG2a in borate buffer saline (BBS; 100 mM NaCl, 50 mM boric acid, 1.2 mM Na2B4O7, pH 8.2) at 4° C. overnight. Plates were blocked with 1% bovine serum albumin (BSA) and 0.02% sodium azide in BBS for 2 h at room temperature. Serial two-fold dilutions of serum samples were added in duplicate to the plates. To generate standard curves, serial dilutions of a mouse immunoglobulin reference serum (MP Biomedicals, Solon, OH) were added to two rows of wells in each plate that had been coated with the appropriate anti-mouse IgG or IgG subclass reagent. After incubation (overnight at 4° C.) and washing of the plates, horseradish peroxidase-conjugated goat anti-mouse IgG or IgG subclass antibody was added to appropriate wells. After 4 h of incubation at room temperature, plates were washed and developed by o-phenylenediamine substrate with hydrogen peroxide. Color development was recorded at 490 nm. The concentrations of antibodies were determined by interpolation on standard curves generated by using the mouse immunoglobulin reference serum and constructed by a computer program based on four-parameter logistic algorithms (Softmax/Molecular Devices Corp., Menlo Park, CA).
Statistical significance in antibody responses was evaluated by t tests (with unpaired, nonparametric and Mann-Whiteny test) using GraphPad Prism 8. Differences were considered significant at a P value<0.05.

A further test relates to serum Ab titers. The settings on record: in vivo; cited from earlier work.

Marks after values point to notes of the source that are not given here.

As for `CC1OC(OC2C(O)C(C(=O)O)OC(OC3CCC4(C)C(CCC5(C)C4CC=C4C6CC(C)(C)CCC6(C(=O)OC6OC(C)C(O)C(O)C6OC6OC(C)C(OC7OCC(O)C(O)C7O)C(OC7OC(CO)C(O)C(OC8OCC(O)C(O)C8O)C7O)C6O)CCC45C)C3(C)C=O)C2OC2OC(CO)C(O)C(O)C2O)C(O)C(O)C1O` (centres unmarked) [compound 3, Momordica saponin I], in test [1], the IgG1, serum IgG subclass anti-OVA activity at week 6 was determined as 233 ± 74 µg/mL; the “IgG2a, serum IgG subclass anti-OVA activity at week 6” value is 0.2; the “IgG2a/IgG1, anti-OVA at week 6” value was <0.001**; the “IgG2a anti-OVA response in words” value is “negligible IgG2a responses”. Besides, the “serum IgG anti-OVA response compared with OVA alone” value in test [1] is given as “did not show significant difference in IgG responses from the OVA group”.

For the molecule Momordica saponins II [compound 4], in test [1], the IgG1, serum IgG subclass anti-OVA activity at week 6 came to 262 ± 37 µg/mL; the “IgG2a, serum IgG subclass anti-OVA activity at week 6” value worked out at 0.1; the “IgG2a/IgG1, anti-OVA at week 6” value is <0.001**; the “IgG2a anti-OVA response in words” value is recorded as “negligible IgG2a responses”. The “serum IgG anti-OVA response compared with OVA alone” value in test [1] is “significant difference in IgG responses from the OVA group at weeks 2 (P<0.01) and 4 (P<0.001) but not at week 6”.

As for monophosphoryl lipid A [MPL], the “boost of serum Ab titers compared to vaccine alone” value in the test on serum Ab titers is on record as 10-20 fold.
